Experimental data as given in PubChem BioAssay (NCI).
Where “and” joins values, the source holds several entries; their conditions need not be identical. Identical values can stand only once.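 Tested at 5 concentrations; 48 h exposure; 96-well plates; endpoints linearly interpolated, else capped at highest concentration. GI50 = concentration required for 50% inhibition of growth. Definition used: TGI = concentration required for complete inhibition of growth.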

What was measured:
Test in all cases: DTP human tumour cell line panel, 48 h
HCT-116 colon = system: HCT-116 colon
K-562 leukemia = system: K-562 leukemia
M14 melanoma = system: M14 melanoma
MDA-MB-435 = system: MDA-MB-435
MOLT-4 leukemia = system: MOLT-4 leukemia
RXF 393 renal = system: RXF 393 renal
SK-MEL-28 melanoma = system: SK-MEL-28 melanoma
SNB-75 CNS = system: SNB-75 CNS
UACC-257 melanoma = system: UACC-257 melanoma
SR leukemia = system: SR leukemia

Compound | GI50 (HCT-116 colon) | TGI (HCT-116 colon) | GI50 (K-562 leukemia) | TGI (K-562 leukemia) | GI50 (M14 melanoma) | TGI (M14 melanoma) | GI50 (MDA-MB-435) | TGI (MDA-MB-435) | GI50 (MOLT-4 leukemia) | TGI (MOLT-4 leukemia) | GI50 (RXF 393 renal) | TGI (RXF 393 renal) | GI50 (SK-MEL-28 melanoma) | TGI (SK-MEL-28 melanoma) | GI50 (SNB-75 CNS) | TGI (SNB-75 CNS) | GI50 (UACC-257 melanoma) | TGI (UACC-257 melanoma) | TGI (SR leukemia) | GI50 (SR leukemia)
CCCCCCCCCCCCCCCCCC1=NC(C)(C)CN1C(C)(C)CO | 0.559 µM | 2.01 µM | 1.11 µM | 4.05 µM | 1.46 µM | 2.88 µM | 1.58 µM | 3.42 µM | 1.45 µM | 4.05 µM | 1.11 µM | 2.36 µM | 1.81 µM | 3.28 µM | 1.47 µM | 3.13 µM | 1.78 µM | 3.5 µM | – | –
COc1ccc(Cc2ccc3[nH]c(=O)cc(C)c3c2)cc1S(=O)(=O)O | – | > 100 µM | – | > 100 µM | – | > 100 µM | – | > 100 µM | – | > 100 µM | – | > 100 µM | – | > 100 µM | – | > 100 µM | – | > 100 µM | > 100 µM | –
O=C(O)c1nn(-c2ccc(Cl)cc2)c2c1C(=O)c1ccccc1C2=O | – | > 100 µM | – | > 100 µM | – | 63.9 µM | – | > 100 µM | – | 88 µM | – | > 100 µM | – | > 100 µM | – | 62.3 µM | – | > 100 µM | 78.7 µM | –
CC(C)(C)c1cc[n+](C[n+]2ccc(C(C)(C)C)cc2)cc1 | – | > 100 µM | – | > 100 µM | – | > 100 µM | – | > 100 µM | – | > 100 µM | – | > 100 µM | – | > 100 µM | – | > 100 µM | – | – | > 100 µM | –
FC(F)(F)c1cccc(Oc2ccc(Nc3ncnc4ccc(OCCCN5CCOCC5)cc34)cc2Cl)c1 | 1.62 µM | 3.08 µM | 1.5 µM | 5.47 µM | 1.75 µM | 3.51 µM | 1.63 µM | 3.39 µM | 1.97 µM | 6.41 µM | 1.76 µM | 4.03 µM | 1.64 µM | 3.01 µM | 1.45 µM | 7.33 µM | 2.03 µM | 4.52 µM | – | –
COC(=O)[C@@H](C)C[C@H](Cc1ccc(F)cc1)NC(=O)c1csc([C@@H](C[C@H](C(C)C)N(C)C(=O)[C@@H](NC(=O)[C@H]2CCCCN2C)C2CC2)OC(C)=O)n1 | 0.116 µM | > 9.49 µM | 0.0605 µM | > 25 µM | 0.157 µM | > 5.99 µM | 0.0194 µM | 0.109 µM | 0.338 µM | > 25 µM | – | – | 1.05 µM | > 25 µM | 0.174 µM | > 25 µM | > 15.5 µM | > 25 µM | > 25 µM | 0.0282 µM
COC(=O)[C@@H](C)C[C@H](Cc1ccccc1)NC(=O)c1csc([C@@H](C[C@H](C(C)C)N(C)C(=O)[C@@H](NC(=O)[C@H]2CCCCN2C)c2ccc(F)cc2)OC(C)=O)n1 | – | 25 µM and > 100 µM | – | 25 µM and 20.8 µM | – | – | 0.00081 µM | 0.00514 µM and 0.0274 µM | – | 8.45 µM and 54.4 µM | – | – | – | > 100 µM | – | 17.6 µM and 61.3 µM | – | > 100 µM | 6.84 µM and 17.6 µM | 0.00065 µM and 0.0025 µM
CO[C@H]1/C=C/O[C@@]2(C)Oc3c(C)c(O)c4c(O)c(c(/C=N/N5C(C)CN(Cc6ccc(C#N)cc6)CC5C)c(O)c4c3C2=O)NC(=O)/C(C)=C\C=C\[C@H](C)[C@H](O)[C@@H](C)[C@@H](O)[C@@H](C)[C@H](OC(C)=O)[C@@H]1C (stereo not given in full) | 5.41 µM | 12.7 µM | 6.71 µM | 25.3 µM | 7.6 µM | 16.2 µM | 8.58 µM | 23.5 µM | – | – | 8.88 µM | 19.4 µM | 8.45 µM | 16.4 µM | 7.25 µM | 18.5 µM | 6.35 µM | 15.8 µM | – | –
COc1cccc(C2SC(C)C(=O)N2NC(=O)C(O)c2ccccc2)c1 (stereo not given) | > 100 µM | > 100 µM | > 100 µM | > 100 µM | > 100 µM | > 100 µM | > 100 µM | > 100 µM | > 100 µM | > 100 µM | > 100 µM | > 100 µM | > 100 µM | > 100 µM | > 100 µM | > 100 µM | > 100 µM | > 100 µM | – | –
C[C@]12CC[C@@H]3c4ccc(O)cc4CC[C@H]3[C@@H]1CC(Cc1ccccc1)(Cc1ccccc1)C2=O | 8.59 µM | 20.7 µM | 16.2 µM | > 100 µM | 13.1 µM | 26.2 µM | 20.7 µM | 57 µM | 9.11 µM | 32.8 µM | – | – | 19.8 µM | 36.9 µM | 16.7 µM | 34.5 µM | 18.4 µM | 39.5 µM | 36.1 µM | 4.87 µM
N#Cc1c(N)c(C(=O)c2ccc3c(c2)OCCO3)n2c1CCCC2 | 3.55 µM | > 100 µM | 0.638 µM | > 100 µM | 2.08 µM | > 100 µM | 0.362 µM | 2.07 µM | 4.19 µM | > 100 µM | 2.29 µM | 17.9 µM | 4.5 µM | > 100 µM | 1.8 µM | 7.48 µM | – | – | > 100 µM | 0.869 µM
COc1cc(/C=C2\C[C@H]3[C@@H]4CC=C5C[C@@H](O)CC[C@]5(C)[C@H]4CC[C@]3(C)[C@H]2O)ccc1OCCN1CCCCC1 | 0.254 µM | 0.494 µM | 0.491 µM | 1.32 µM | 0.424 µM | 0.954 µM | 0.945 µM | 1.8 µM | 3.07 µM | > 50 µM | 1.04 µM | 2.31 µM | 1.06 µM | > 50 µM | – | – | 1.61 µM | 5.02 µM | > 50 µM | 1.11 µM
CN1CCN(c2ccncc2S(=O)(=O)N2CCN(C)CC2)CC1 | – | > 100 µM | – | > 100 µM | – | > 100 µM | – | > 100 µM | – | – | – | > 100 µM | – | > 100 µM | – | > 100 µM | – | > 100 µM | – | –
CCOc1ccc(Nc2ccnc3cc(Cl)ccc23)cc1 | 35 µM | > 100 µM | 32.3 µM | > 100 µM | – | – | > 100 µM | > 100 µM | > 100 µM | > 100 µM | 72.3 µM | > 100 µM | > 100 µM | > 100 µM | 17 µM | 51.2 µM | > 100 µM | > 100 µM | > 100 µM | 14.7 µM
CC1(C)CC[C@]2(C(=O)NCCNCCN)CC[C@]3(C)C(=CC[C@@H]4[C@@]5(C)CCC(=O)C(C)(C)[C@@H]5CC[C@]43C)[C@@H]2C1 | 1.75 µM | 3.21 µM | 2.74 µM | > 100 µM | 1.87 µM | 3.5 µM | 1.75 µM | 3.19 µM | 2.44 µM | 6.15 µM | 1.57 µM | 2.93 µM | 1.75 µM | 3.2 µM | – | – | 1.86 µM | 3.85 µM | 4.76 µM | 1.7 µM
